Experimental data from US20150313228A1, “SYNERGISTIC HERBICIDAL COMBINATIONS AND METHODS OF USE” (priority 2012, published 2015).

Experiments:
Format in all cases: in vivo
Palmer amaranth [1] = test: Pre-emergence application in Palmer amaranth under greenhouse conditions (Example 1); conditions: 18 days after application
Text: (§1) The following testing protocol was employed to evaluate the pre-emergence application of herbicides and herbicide combinations as described in the following examples unless otherwise specified. The weed species to be treated were planted in 3.5 inch pots containing a 50:50 silt loam:redi-earth soil mix. Immediately after such planting (i.e., pre-emergence), herbicide was applied to the soil mix at the specified application rate using a track sprayer with a flat even nozzle type, 9501E nozzle size, and spray pressure of 165 kPa. All herbicides were incorporated into the germination zone with 0.25 inch of overhead irrigation three days after spraying. Additional sub-irrigation was provided to achieve adequate soil moisture for germination. After the incorporation of the herbicide(s), the pots were only overhead irrigated as needed. Throughout the test period, temperature was maintained from about 20° C. to about 30° C. and relative humidity was maintained at about 30%. The plants were rated visually and percentage of weed control was determined for each treatment at 19 days after herbicide application.
(§2) Pre-emergence application of several herbicides and herbicide combinations was evaluated in Palmer amaranth under greenhouse conditions. The plants were rated visually and percentage of weed control was determined at 18 days after herbicide application. The herbicides and herbicide combinations evaluated are listed in Table 1-A below together with the corresponding percent control data. The data represent an average value (n=6).
The results of the analysis are reported below in Table 1-B (dicamba+metribuzin), Table 1-C(acetochlor+metribuzin), and Table 1-D (acetochlor+dicamba).

morning glory = test: Pre-emergence application in morning glory under greenhouse conditions (Example 2); conditions: 18 days after application
Text: as §1
as §2, with “morning glory” for “Palmer amaranth”, “2-A” for “1-A”
The results of the analysis are reported below in Table 2-B (dicamba+metribuzin), Table 2-C(acetochlor+metribuzin), and Table 2-D (acetochlor+dicamba).

wild Proso millet = test: Pre-emergence application in wild Proso millet under greenhouse conditions (Example 3); conditions: 16 days after application
Text: as §1
as §2, with “wild Proso millet” for “Palmer amaranth”, “16” for “18”, “3-A” for “1-A”
The results of the analysis are reported below in Table 3-B (dicamba+metribuzin), Table 3-C (acetochlor+metribuzin), and Table 3-D (acetochlor+dicamba).

sicklepod = test: Pre-emergence application in sicklepod under greenhouse conditions (Example 4); conditions: 18 days after application
Text: as §1
as §2, with “sicklepod” for “Palmer amaranth”, “4-A” for “1-A”
The results of the analysis are reported below in Table 4-B (dicamba+metribuzin), Table 4-C(acetochlor+metribuzin), and Table 4-D (acetochlor+dicamba).

Johnsongrass = test: Pre-emergence application in Johnsongrass under greenhouse conditions (Example 5); conditions: 16 days after application
Text: as §1
as §2, with “Johnsongrass” for “Palmer amaranth”, “16” for “18”, “5-A” for “1-A”
The results of the analysis are reported below in Table 5-B (dicamba+metribuzin), Table 5-C(acetochlor+metribuzin), and Table 5-D (acetochlor+dicamba).

ryegrass = test: Pre-emergence application in ryegrass under greenhouse conditions (Example 6); conditions: 16 days after application
Text: as §1
as §2, with “ryegrass” for “Palmer amaranth”, “16” for “18”, “6-A” for “1-A”
The results of the analysis are reported below in Table 6-B (dicamba+metribuzin), Table 6-C(acetochlor+metribuzin), and Table 6-D (acetochlor+dicamba).

Palmer amaranth [2] = test: Post-emergence application in Palmer amaranth under greenhouse conditions (Example 7); conditions: 24 days after application
Text: The following testing protocol was employed to evaluate the post-emergence application of herbicides and herbicide combinations as described in the following examples unless otherwise specified. The weed species to be treated were planted in 3.5 inch pots containing redi-earth potting mix and grown under greenhouse conditions. When the weed species reached a height of about four inches, herbicide was applied at the specified application rate using a track sprayer with a flat even nozzle type, 9501E nozzle size, and spray pressure of 165 kPa. After the application of the herbicide(s), the pots were only sub-irrigated as needed. Throughout the test period, temperature was maintained from about 20° C. to about 30° C. and relative humidity was maintained at about 30%. The plants were rated visually and percentage of weed control was determined for each treatment at 15 to 21 days after herbicide application.
as §2, with “Post-emergence” for “Pre-emergence”, “24” for “18”, “7-A” for “1-A”
The results of the analysis are reported below in Table 7-B (glyphosate+dicamba), Table 7-C(glyphosate+metribuzin), and Table 7-D (dicamba+metribuzin).

CSc1nnc(C(C)(C)C)c(=O)n1N [Metribuzin, 4-amino-6-(1,1-dimethylethyl)-3-(methylthio)-1,2,4-triazin-5(4H)-one]
PERCENT CONTROL (Palmer amaranth [1]; 420 g/ha): 100.0% | PERCENT CONTROL (Palmer amaranth [1]; 840 g/ha): 100.0% | PERCENT CONTROL (morning glory; 420 g/ha): 16.7% | PERCENT CONTROL (morning glory; 840 g/ha): 63.8% | PERCENT CONTROL (wild Proso millet; 420 g/ha): 100.0% | PERCENT CONTROL (wild Proso millet; 840 g/ha): 100.0% | PERCENT CONTROL (sicklepod; 420 g/ha): 56.7% | PERCENT CONTROL (sicklepod; 840 g/ha): 100.0% | PERCENT CONTROL (Johnsongrass; 420 g/ha): 84.2% | PERCENT CONTROL (Johnsongrass; 840 g/ha): 100.0% | PERCENT CONTROL (ryegrass; 420 g/ha): 33.3% | PERCENT CONTROL (ryegrass; 840 g/ha): 66.7% | PERCENT CONTROL (Palmer amaranth [2]; 420 g/ha): 20.0% | PERCENT CONTROL (Palmer amaranth [2]; 840 g/ha): 26.0%

CCOCN(C(=O)CCl)c1c(C)cccc1CC [Acetochlor, 2-chloro-N-(ethoxymethyl)-6′-ethyl-o-acetotoluidide]
PERCENT CONTROL (Palmer amaranth [1]; 840 g/ha): 65.8% | PERCENT CONTROL (Palmer amaranth [1]; 1260 g/ha): 90.8% | PERCENT CONTROL (morning glory; 840 g/ha): 5.0% | PERCENT CONTROL (morning glory; 1260 g/ha): 7.5% | PERCENT CONTROL (wild Proso millet; 840 g/ha): 74.2% | PERCENT CONTROL (wild Proso millet; 1260 g/ha): 84.0% | PERCENT CONTROL (sicklepod; 840 g/ha): 4.0% | PERCENT CONTROL (sicklepod; 1260 g/ha): 5.8% | PERCENT CONTROL (Johnsongrass; 840 g/ha): 94.8% | PERCENT CONTROL (Johnsongrass; 1260 g/ha): 100.0% | PERCENT CONTROL (ryegrass; 840 g/ha): 82.5% | PERCENT CONTROL (ryegrass; 1260 g/ha): 86.7%

COc1c(Cl)ccc(Cl)c1C(=O)O [Dicamba, 3,6-dichloro-2-methoxy benzoic acid]
PERCENT CONTROL (Palmer amaranth [1]; 280 g/ha): 88.3% | PERCENT CONTROL (Palmer amaranth [1]; 560 g/ha): 84.2% | PERCENT CONTROL (morning glory; 280 g/ha): 38.0% | PERCENT CONTROL (morning glory; 560 g/ha): 81.7% | PERCENT CONTROL (wild Proso millet; 280 g/ha): 43.3% | PERCENT CONTROL (wild Proso millet; 560 g/ha): 74.2% | PERCENT CONTROL (sicklepod; 280 g/ha): 42.0% | PERCENT CONTROL (sicklepod; 560 g/ha): 84.0% | PERCENT CONTROL (Johnsongrass; 280 g/ha): 71.7% | PERCENT CONTROL (Johnsongrass; 560 g/ha): 83.3% | PERCENT CONTROL (ryegrass; 280 g/ha): 31.7% | PERCENT CONTROL (ryegrass; 560 g/ha): 56.7% | PERCENT CONTROL (Palmer amaranth [2]; 280 g/ha): 100.0% | PERCENT CONTROL (Palmer amaranth [2]; 560 g/ha): 100.0%
